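Cells were grown in 96-well plates and exposed to each compound for 48 hours at five concentrations; endpoints were interpolated linearly between bracketing concentrations, or set to the highest concentration if not reached. TGI marks complete inhibition of growth.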
Key:
Experiment in all cases: NCI tumour cell line growth inhibition, 48 h
[1] = system: 786-0 renal
[2] = system: A498 renal
[3] = system: A549 NSCLC
[4] = system: ACHN renal
[5] = system: CAKI-1 renal
[6] = system: CCRF-CEM leukemia
[7] = system: COLO 205 colon
[8] = system: DLD-1 colon
[9] = system: DMS 114 small cell lung
[10] = system: DMS 273 small cell lung
[11] = system: EKVX NSCLC
[12] = system: HCT-116 colon
[13] = system: HCT-15 colon
[14] = system: HL-60(TB) leukemia
[15] = system: HOP-62 NSCLC
[16] = system: HOP-92 NSCLC
[17] = system: K-562 leukemia
[18] = system: KM12 colon
[19] = system: KM20L2 colon
[20] = system: LOX IMVI melanoma
[21] = system: M14 melanoma
[22] = system: M19-MEL melanoma
[23] = system: MOLT-4 leukemia
[24] = system: NCI-H23 lung
[25] = system: NCI-H460 lung
[26] = system: NCI-H522 lung
[27] = system: OVCAR-3 ovarian
[28] = system: OVCAR-4 ovarian
[29] = system: OVCAR-8 ovarian
[30] = system: RPMI-8226 leukemia
[31] = system: RXF 393 renal
[32] = system: RXF-631 renal
[33] = system: SF-268 CNS
[34] = system: SF-295 CNS
[35] = system: SF-539 CNS
[36] = system: SK-MEL-2 melanoma
[37] = system: SK-MEL-28 melanoma
[38] = system: SK-MEL-5 melanoma
[39] = system: SK-OV-3 ovarian
[40] = system: SN12C renal
[41] = system: SNB-19 CNS
[42] = system: SNB-75 CNS
[43] = system: SNB-78 CNS
[44] = system: SR leukemia
[45] = system: SW-620 colon
[46] = system: TK-10 renal
[47] = system: U251 CNS
[48] = system: UACC-257 melanoma
[49] = system: UACC-62 melanoma
[50] = system: UO-31 renal
[51] = system: XF 498 CNS
[52] = system: HCC-2998 colon
[53] = system: HOP-18 NSCLC
[54] = system: HT29 colon
[55] = system: IGROV1 ovarian
[56] = system: MALME-3M melanoma
[57] = system: MCF7 breast
[58] = system: NCI-H226 lung
[59] = system: NCI/ADR-RES ovarian
[60] = system: P388 leukemia
[61] = system: P388/ADR leukemia
[62] = system: SN12K1 renal
[63] = system: LXFL 529 NSCLC
[64] = system: OVCAR-5 ovarian

## c1ccc(CN(Cc2ccccn2)Cn2cccn2)nc1
[1]
  TGI: > 100 µM
[2]
  TGI: > 100 µM
[3]
  TGI: > 100 µM
[4]
  TGI: > 100 µM
[5]
  TGI: > 100 µM
[6]
  TGI: > 100 µM
[7]
  TGI: > 100 µM
[8]
  TGI: > 100 µM
[9]
  TGI: 54.6 µM
[10]
  TGI: > 100 µM
[11]
  TGI: > 100 µM
[12]
  TGI: 63.7 µM
[13]
  TGI: 78.9 µM
[14]
  TGI: 55.8 µM
[15]
  TGI: > 100 µM
[16]
  TGI: > 100 µM
[17]
  TGI: > 100 µM
[18]
  TGI: > 100 µM
[19]
  TGI: > 100 µM
[20]
  TGI: > 100 µM
[21]
  TGI: > 100 µM
[22]
  TGI: > 100 µM
[23]
  TGI: > 100 µM
[24]
  TGI: > 100 µM
[25]
  TGI: > 100 µM
[26]
  TGI: > 100 µM
[27]
  TGI: > 100 µM
[28]
  TGI: > 100 µM
[29]
  TGI: > 100 µM
[30]
  TGI: 75.6 µM
[31]
  TGI: > 100 µM
[32]
  TGI: > 100 µM
[33]
  TGI: > 100 µM
[34]
  TGI: > 100 µM
[35]
  TGI: > 100 µM
[36]
  TGI: > 100 µM
[37]
  TGI: > 100 µM
[38]
  TGI: > 100 µM
[39]
  TGI: > 100 µM
[40]
  TGI: > 100 µM
[41]
  TGI: > 100 µM
[42]
  TGI: > 100 µM
[43]
  TGI: > 100 µM
[44]
  TGI: > 100 µM
[45]
  TGI: > 100 µM
[46]
  TGI: > 100 µM
[47]
  TGI: > 100 µM
[48]
  TGI: > 100 µM
[49]
  TGI: 44.4 µM
[50]
  TGI: > 100 µM
[51]
  TGI: > 100 µM

## CN(c1ccccc1)c1c(-c2ccccc2)c(=O)oc2c1ccc1occc12
[2]
  TGI: > 100 µM
[3]
  TGI: > 100 µM
[5]
  TGI: > 100 µM
[6]
  TGI: > 100 µM
[7]
  TGI: > 100 µM
[8]
  TGI: > 100 µM
[9]
  TGI: > 100 µM
[10]
  TGI: > 100 µM
[11]
  TGI: > 100 µM
[52]
  TGI: > 100 µM
[12]
  TGI: > 100 µM
[13]
  TGI: > 100 µM
[14]
  TGI: > 100 µM
[53]
  TGI: > 100 µM
[15]
  TGI: > 100 µM
[16]
  TGI: > 95.6 µM
[54]
  TGI: > 100 µM
[55]
  TGI: > 100 µM
[17]
  TGI: > 100 µM
[18]
  TGI: > 100 µM
[20]
  TGI: > 100 µM
[22]
  TGI: > 100 µM
[56]
  TGI: > 100 µM
[57]
  TGI: > 100 µM
[23]
  TGI: > 100 µM
[58]
  TGI: 2.85 µM
[24]
  TGI: > 100 µM
[25]
  TGI: > 100 µM
[26]
  TGI: > 100 µM
[59]
  TGI: > 100 µM
[27]
  TGI: > 100 µM
[28]
  TGI: > 100 µM
[29]
  TGI: > 100 µM
[60]
  TGI: > 100 µM
[61]
  TGI: > 100 µM
[31]
  TGI: > 100 µM
[33]
  TGI: > 100 µM
[34]
  TGI: > 100 µM
[35]
  TGI: > 100 µM
[36]
  TGI: > 100 µM
[37]
  TGI: > 100 µM
[38]
  TGI: > 100 µM
[39]
  TGI: > 100 µM
[40]
  TGI: > 100 µM
[62]
  TGI: > 100 µM
[41]
  TGI: > 100 µM
[42]
  TGI: > 100 µM
[43]
  TGI: > 100 µM
[45]
  TGI: > 100 µM
[47]
  TGI: > 100 µM
[48]
  TGI: > 100 µM
[49]
  TGI: > 100 µM
[50]
  TGI: > 100 µM

## O=C(c1ccccc1)c1ccc2c(c1)N=C(c1ccc(Cl)c(Cl)c1)CC(c1ccc3ccccc3c1)N2 (centres undefined)
[2]
  TGI: > 100 µM
[3]
  TGI: > 100 µM
[4]
  TGI: > 100 µM
[5]
  TGI: > 100 µM
[6]
  TGI: > 100 µM
[7]
  TGI: > 100 µM
[8]
  TGI: > 100 µM
[9]
  TGI: > 100 µM
[10]
  TGI: > 100 µM
[11]
  TGI: > 100 µM
[52]
  TGI: > 100 µM
[12]
  TGI: > 100 µM
[13]
  TGI: > 100 µM
[14]
  TGI: > 100 µM
[15]
  TGI: > 100 µM
[16]
  TGI: > 100 µM
[54]
  TGI: > 100 µM
[55]
  TGI: > 100 µM
[17]
  TGI: > 100 µM
[18]
  TGI: > 100 µM
[19]
  TGI: > 100 µM
[20]
  TGI: > 100 µM
[63]
  TGI: > 100 µM
[21]
  TGI: > 100 µM
[22]
  TGI: > 100 µM
[23]
  TGI: > 100 µM
[58]
  TGI: > 100 µM
[24]
  TGI: > 100 µM
[25]
  TGI: > 100 µM
[26]
  TGI: > 100 µM
[28]
  TGI: > 100 µM
[64]
  TGI: > 100 µM
[29]
  TGI: > 100 µM
[30]
  TGI: > 100 µM
[31]
  TGI: > 100 µM
[32]
  TGI: > 100 µM
[33]
  TGI: > 100 µM
[34]
  TGI: > 100 µM
[35]
  TGI: > 100 µM
[36]
  TGI: > 100 µM
[37]
  TGI: > 100 µM
[38]
  TGI: > 100 µM
[39]
  TGI: > 100 µM
[40]
  TGI: > 100 µM
[41]
  TGI: > 100 µM
[42]
  TGI: > 100 µM
[43]
  TGI: > 100 µM
[44]
  TGI: > 100 µM
[45]
  TGI: > 100 µM
[46]
  TGI: > 100 µM
[47]
  TGI: > 100 µM
[48]
  TGI: > 100 µM
[49]
  TGI: > 100 µM
[50]
  TGI: > 100 µM
[51]
  TGI: > 100 µM

Source: PubChem BioAssay (NCI)
